The subject of series [1] is Male BALB/c mice. The series is described as follows: Mouse Peripheral Lymphocyte Lowering (PLL) assay. It counts as in vivo. As to conditions: 1.00 mg/kg oral dose; blood at 5 hours post-dose; FIG. 1. The procedure: Male BALB/c mice (Charles River Laboratories, Wilmington, Mass.) were housed four per cage and maintained in a humidity-controlled (40 to 60%) and temperature-controlled (68 to 72° F.) facility on a 12 h:12 h light/dark cycle (lights on at 6:30 am) with free access to food (Harlan Teklad, Orange, Calif., Rodent Diet 8604) and water. Mice were allowed one week of habituation to the animal facility before testing. PLL Assay: […] Peripheral blood samples were collected at 5 hours post-dose. The mice were anesthetized with isoflurane and blood was collected via cardiac puncture. A complete cell count (CBC), including lymphocyte count, was obtained using a CELL-DYN® 3700 (Abbott Laboratories, Abbott Park, Ill.) instrument. Results are presented in FIG. 1, in which peripheral blood lymphocyte (PBL) count is shown for the 5 hour group.

Series [2] deals with Female Lewis rats. The series can be described thus: Collagen-induced arthritis rat model. It counts as in vivo. As to conditions: 0.3, 1 and 3 mg/kg p.o., q.d., day 0 to day 16; FIG. 3. How it is done: Female Lewis rats were used in this study. Acclimated animals were anesthetized with isoflurane and given the first collagen injection (day 0). On day 6, they were anesthetized again for the second collagen injection. Collagen was prepared by making a 4 mg/mL solution in 0.01 N acetic acid. Equal volumes of collagen and incomplete Freund's adjuvant were emulsified by hand mixing until a bead of this material held its form when placed in water. Each animal received 300 μL of the mixture each time, spread over 3 subcutaneous sites on the back. Treatment (p.o., q.d., 5 mL/kg dosing volume) began on day 0 and continued through day 16 with vehicle or compounds given at 24 h intervals. Rats were weighed on days 0, 3, 6 and 9 through 17 and caliper measurements of the ankles taken on days 9 through 17.

The target of series [3] is S1P1 receptor (Homo sapiens (Human), UniProt P21453). The series is described as follows: HTRF assay for direct cAMP measurement in recombinant CHO-K1 cells stably transfected with S1P1. It counts as cell-based. The text has this:
CHO-K1 cells were obtained from ATCC® (Manassas, Va.; Catalog #CCL-61). […] The HTRF® assay has been used to determine EC50 values for S1P1 receptor agonists.
HTRF® assay kit was purchased from Cisbio-US, Inc. (Bedford, Mass.; Catalog #62AM4PEC). The HTRF® assay supported by the kit is a competitive immunoassay between endogenous cAMP produced by the CHO-K1 cells and tracer cAMP labeled with the dye d2. The tracer binding is visualized by a monoclonal anti-cAMP antibody labeled with Cryptate. The specific signal (i.e., fluorescence resonance energy transfer, FRET) is inversely proportional to the concentration of unlabeled cAMP in the standard or sample.
The fluorescence ratio (665 nm/620 nm) of the standards (0.17 to 712 nM cAMP) included in the assay was calculated and used to generate a cAMP standard curve according to the kit manufacturer's instructions. The fluorescence ratio of the samples (test compound or compound buffer) was calculated and used to deduce respective cAMP concentrations by reference to the cAMP standard curve.
The HTRF® assay was carried out using a two-step protocol essentially according to the kit manufacturer's instructions, in […] total volume per well in 384-well plate format (ProxiPlates; PerkinElmer, Fremont, Calif.; catalog #6008280). […] The plate was then further incubated at room temperature for 1 hour, after which the assay plate was read. […]
On the technique in general: Time-resolved FRET reads energy transfer from a long-lived donor to a nearby acceptor.

For series [4], the system named is Male Sprague-Dawley rats. The series can be described thus: Rat Peripheral Lymphocyte Lowering (PLL) assay. It counts as in vivo. As to conditions: 1.00 mg/kg oral dose; blood at 5 hours post-dose; FIG. 2. The procedure: Male Sprague-Dawley rats (7 weeks of age at start of study) (Charles River Laboratories) were housed two per cage and maintained in a humidity-controlled (40-60%) and temperature-controlled (68-72° F.) facility on a 12 h:12 h light/dark cycle (lights on at 6:30 am) with free access to food (Harlan Teklad, Orange, Calif., Rodent Diet 8604) and water. Rats were allowed one week of habituation to the animal facility before testing. […] Peripheral blood samples were collected at 5 hours post-dose. Blood was collected via indwelling catheter. A complete cell count (CBC), including lymphocyte count, was obtained using a CELL-DYN® 3700 (Abbott Laboratories, Abbott Park, Ill.) instrument. Results are presented in FIG. 2, in which peripheral blood lymphocyte (PBL) count is shown for the 5 hour group.

Series [5] has as its system Male Sprague-Dawley rats. The series is described as follows: Cardiac telemetry in the rat (exemplary bradycardia assay). As to conditions: oral, vehicle PEG400; heart rate measured over a 120 min period. The class given is in vivo. How it is done: Male Sprague-Dawley rats (250-300 g at time of surgery) were implanted by Charles River Laboratories (Wilmington, Mass.) with cardiac transmitting devices (Data Sciences PhysioTel C50-PXT) into the peritoneal space, with a pressure-sensing catheter inserted into the descending aorta. Rats are allowed at least one week to recover. Rats were housed in individual cages and maintained in a humidity-controlled (30-70%) and temperature-controlled (20-22° C.) facility on a 12 h:12 h light/dark cycle (lights on at 7:00 am) with free access to food (Harlan-Teklad, Orange, Calif., Rodent Diet 8604) and water. Rats were allowed one week of habituation to the animal facility before testing.
The implanted transmitting devices transmitted continuous measurements of blood pressure (systolic, diastolic, mean arterial, pulse), heart rate, body temperature, and motor activity in freely moving conscious animals. […] Telemetry recording occurred over a 21-h period, starting at noon and continuing until 9:00 am the following day. […]
By way of illustration and not limitation, the rats were administered vehicle (PEG 400) and (R)-2-(7-(4-cyclopentyl-3-(trifluoromethyl)benzyloxy)-1,2,3,4-tetrahydrocyclopenta[b]indol-3-yl)acetic acid and heart rate was then measured over a 120 min period.

Series [6] deals with Female C57BL/6 mice. The series can be described thus: MOG-induced experimental autoimmune encephalomyelitis (EAE) in mice. It counts as in vivo, mouse. As to conditions: 0.3, 1 and 3 mg/kg orally once a day from day 3 until day 21; FIG. 4.

Chain of S1P1 receptor (P21453 whole entry): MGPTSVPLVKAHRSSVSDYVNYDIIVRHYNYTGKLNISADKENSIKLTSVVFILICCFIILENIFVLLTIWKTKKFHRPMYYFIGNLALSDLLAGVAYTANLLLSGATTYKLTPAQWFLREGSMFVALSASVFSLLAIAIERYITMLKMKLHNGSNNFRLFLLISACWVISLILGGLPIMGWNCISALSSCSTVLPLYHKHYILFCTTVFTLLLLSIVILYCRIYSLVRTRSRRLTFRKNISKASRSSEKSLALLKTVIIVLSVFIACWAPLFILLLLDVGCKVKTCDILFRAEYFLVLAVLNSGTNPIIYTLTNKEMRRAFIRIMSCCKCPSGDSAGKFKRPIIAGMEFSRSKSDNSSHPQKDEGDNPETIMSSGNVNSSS

Turning to `O=C(O)C[C@H]1CCc2c1[nH]c1ccc(OCc3ccc(C4CCCC4)c(C(F)(F)F)c3)cc21` [(R)-2-(7-(4-cyclopentyl-3-(trifluoromethyl)benzyloxy)-1,2,3,4-tetrahydrocyclopenta[b]indol-3-yl)acetic acid], the “peripheral blood lymphocyte (PBL) count lowering vs vehicle” value in series [1] and in series [4] was “exhibited activity for inducing PBL lowering (lymphopenia)” each time. Further, the “reduction of mean ankle diameter” value in series [2] is given as “exhibited activity for reducing mean ankle diameter”. In series [3], the “S1P1 receptor agonism (decrease of cAMP concentration)” value is listed as “agonist of the S1P1 receptor”. In addition, the “reduction of heart rate (bradycardia) vs vehicle” value in series [5] is “no or substantially no reduction of heart rate”. The “reduction of severity of disease symptoms (clinical score) in EAE” value in series [6] is listed as “exhibited activity in the mouse EAE assay”.

The values above are taken from patent publication US11149292B2, “Processes for the preparation of (R)-2-(7-(4-cyclopentyl-3-(trifluoromethyl)benzyloxy)-1,2,3,4-tetrahydrocyclopenta[B]indol-3-yl)acetic acid and salts thereof” (Arena Pharmaceuticals, Inc., priority 2010, dated 2021).
